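Where inhibition never reached the appropriate level, the endpoint shown equals the highest concentration tested. Otherwise, values were interpolated linearly from a five-concentration, 48-hour dose response in 96-well plates. At the TGI there is no net growth.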
Key:
Test in all cases: NCI anticancer screen, dose series, 48 h
SK-MEL-5 melanoma = tested on: SK-MEL-5 melanoma
MOLT-4 leukemia = tested on: MOLT-4 leukemia
SW-620 colon = tested on: SW-620 colon
RXF 393 renal = tested on: RXF 393 renal
HOP-62 NSCLC = tested on: HOP-62 NSCLC
DMS 114 small cell lung = tested on: DMS 114 small cell lung
MALME-3M melanoma = tested on: MALME-3M melanoma
OVCAR-8 ovarian = tested on: OVCAR-8 ovarian
SNB-19 CNS = tested on: SNB-19 CNS
UACC-62 melanoma = tested on: UACC-62 melanoma
U251 CNS = tested on: U251 CNS
CCRF-CEM leukemia = tested on: CCRF-CEM leukemia
SF-268 CNS = tested on: SF-268 CNS
OVCAR-3 ovarian = tested on: OVCAR-3 ovarian
XF 498 CNS = tested on: XF 498 CNS
K-562 leukemia = tested on: K-562 leukemia
HT29 colon = tested on: HT29 colon
SN12C renal = tested on: SN12C renal
SNB-75 CNS = tested on: SNB-75 CNS
KM12 colon = tested on: KM12 colon
NCI-H460 lung = tested on: NCI-H460 lung
SF-295 CNS = tested on: SF-295 CNS
NCI-H522 lung = tested on: NCI-H522 lung
KM20L2 colon = tested on: KM20L2 colon
HOP-92 NSCLC = tested on: HOP-92 NSCLC
M19-MEL melanoma = tested on: M19-MEL melanoma
SNB-78 CNS = tested on: SNB-78 CNS
HCC-2998 colon = tested on: HCC-2998 colon
LOX IMVI melanoma = tested on: LOX IMVI melanoma
SF-539 CNS = tested on: SF-539 CNS
A498 renal = tested on: A498 renal
SR leukemia = tested on: SR leukemia
786-0 renal = tested on: 786-0 renal
SK-OV-3 ovarian = tested on: SK-OV-3 ovarian
OVCAR-4 ovarian = tested on: OVCAR-4 ovarian
HL-60(TB) leukemia = tested on: HL-60(TB) leukemia
TK-10 renal = tested on: TK-10 renal
RXF-631 renal = tested on: RXF-631 renal
SK-MEL-28 melanoma = tested on: SK-MEL-28 melanoma
LXFL 529 NSCLC = tested on: LXFL 529 NSCLC
UACC-257 melanoma = tested on: UACC-257 melanoma
IGROV1 ovarian = tested on: IGROV1 ovarian
ACHN renal = tested on: ACHN renal
NCI-H23 lung = tested on: NCI-H23 lung
EKVX NSCLC = tested on: EKVX NSCLC
COLO 205 colon = tested on: COLO 205 colon
NCI-H226 lung = tested on: NCI-H226 lung
A549 NSCLC = tested on: A549 NSCLC
UO-31 renal = tested on: UO-31 renal
DLD-1 colon = tested on: DLD-1 colon
HOP-18 NSCLC = tested on: HOP-18 NSCLC
HCT-116 colon = tested on: HCT-116 colon
M14 melanoma = tested on: M14 melanoma
RPMI-8226 leukemia = tested on: RPMI-8226 leukemia
HCT-15 colon = tested on: HCT-15 colon
DMS 273 small cell lung = tested on: DMS 273 small cell lung
OVCAR-5 ovarian = tested on: OVCAR-5 ovarian
SK-MEL-2 melanoma = tested on: SK-MEL-2 melanoma
CAKI-1 renal = tested on: CAKI-1 renal

Measured: TGI

COC1(OC)CC2C=C(S(=O)(=O)c3ccccc3)C1N(Cc1ccccc1)C2=O (stereo not given)
93.7 µM: HT29 colon
76.8 µM: SW-620 colon
64.7 µM: OVCAR-8 ovarian
33.1 µM: LOX IMVI melanoma
44.9 µM: SF-539 CNS | LXFL 529 NSCLC
68.2 µM: SN12C renal
58.4 µM: UACC-62 melanoma
97.6 µM: KM20L2 colon
49.8 µM: RXF 393 renal
48.1 µM: XF 498 CNS
43.4 µM: COLO 205 colon
40.5 µM: NCI-H23 lung
75.9 µM: SNB-78 CNS | NCI-H226 lung
57.1 µM: A498 renal
67.1 µM: M14 melanoma
92.3 µM: KM12 colon
66.4 µM: TK-10 renal
33.9 µM: NCI-H522 lung
88.2 µM: RXF-631 renal
30 µM: HCT-116 colon
48.3 µM: DMS 114 small cell lung
90.9 µM: CCRF-CEM leukemia
95.5 µM: HOP-92 NSCLC
96.2 µM: DLD-1 colon
50.5 µM: HL-60(TB) leukemia
56.6 µM: OVCAR-3 ovarian
not listed: RPMI-8226 leukemia | HCT-15 colon | DMS 273 small cell lung | OVCAR-5 ovarian | SK-MEL-2 melanoma | CAKI-1 renal
> 100 µM: all other assays above

COc1ccc(C2C3C(=O)C=CC(=O)C3[C@@H]2C)cc1OC (stereo not given in full)
91.9 µM: MOLT-4 leukemia
62.4 µM: HCT-15 colon
63.1 µM: RPMI-8226 leukemia
33.4 µM: NCI-H522 lung
not listed: CCRF-CEM leukemia | SN12C renal | SR leukemia | HL-60(TB) leukemia
> 100 µM: all other assays above

O=C(CO)CC(=O)C(=O)Nc1nc([N+](=O)[O-])cs1
not listed: XF 498 CNS | HOP-92 NSCLC
> 100 µM: all other assays above
